Data from patent US20240293459A1 (priority 2021, published 2024).

test system: healthy donor PBMC (CD8+ T cells); format: cell-based, human; conditions: of one 48 well plate; two rounds of stimulation with peptide-pulsed autologous DCs; HLA-matched healthy donor

**Q.** Which “wells showing clear peptide tetramer positive CD8+ T cell population” value does the source give for “VYIGDPAQL (listed as Homo Sapiens) [NSP13-400, NSP13 derived HLA-A2402 peptide]” here?
**A.** Its value is 9 wells.

**Q.** How did the “wells showing clear peptide tetramer positive CD8+ T cell population” value turn out when TLVPQEHYV [NSP13-242] was run?
**A.** The value was 48 wells.

**Q.** How did the “wells showing clear peptide tetramer positive CD8+ T cell population” value turn out when KLFAAETLK [NSP13-134] was run?
**A.** The value was 11 wells.
